According to patent publication US9226500B2, “Pesticidal compositions and processes related thereto” (Dow AgroSciences LLC, priority 2012, dated 2016):

Tested on: Beet Armyworm (Spodoptera exigua)
Assay: Bioassay on Beet Armyworm (BAW), 128-well diet tray assay
Assay type: in vivo
Conditions: Table 3, Assays Results Part 1

Compound	BAW Rating
Cc1cc(/C=C/C(c2cc(Cl)cc(Cl)c2)C(F)(F)F)ccc1C(=O)N(C)Cc1ccc(Cl)nc1 (stereo not drawn) [AC117]	A (50-100)
Cc1cc(/C=C/C(c2cc(Cl)cc(Cl)c2)C(F)(F)F)ccc1C(=O)NCc1ccccc1F (stereo not drawn) [AC9]	A (50-100)
O=C(NCc1ccc(Cl)nc1)c1ccc(/C=C/C(c2cc(Cl)c(Cl)c(Cl)c2)C(F)(F)F)cc1Br (stereo not drawn) [AC31]	A (50-100)
Cc1cc(/C=C/C(c2cc(Cl)cc(Cl)c2)C(F)(F)F)ccc1C(=O)NCC1CCCO1 (stereo not drawn) [AC118]	A (50-100)
O=C(NCc1ccc(Cl)nc1)c1ccc(/C=C/C(c2cc(Cl)c(Cl)c(Cl)c2)C(F)(F)F)cc1C(F)(F)F (stereo not drawn) [AC36]	A (50-100)
Cc1cc(/C=C/C(c2cc(Cl)c(Cl)c(Cl)c2)C(F)(F)F)cc(C#N)c1-n1cncn1 (stereo not drawn) [DC45]	A (50-100)
Cc1cc(/C=C/C(c2cc(Cl)c(F)c(Cl)c2)C(F)(F)F)ccc1C(=O)NCc1cc(Cl)ccn1 (stereo not drawn) [AC77]	A (50-100)
O=C(NC1CS(=O)(=O)C1)c1ccc(/C=C/C(c2cc(Cl)c(F)c(Cl)c2)C(F)(F)F)cc1F (stereo not drawn) [AC84]	A (50-100)
Cc1cc(/C=C/C(c2cc(Cl)cc(Cl)c2)C(F)(F)F)ccc1-n1cncn1 (stereo not drawn) [DC62]	A (50-100)
O=C(NCc1ccc(/C=C/C(c2cc(Cl)c(Cl)c(Cl)c2)C(F)(F)F)cc1Br)C1CC1 (stereo not drawn) [CC26]	A (50-100)
Cc1cc(/C=C/C(c2cc(Cl)c(Cl)c(Cl)c2)C(F)(F)F)ccc1C(=O)NC(C)(C)c1ccccn1 (stereo not drawn) [AC27]	A (50-100)
O=C(NCc1ccc(Cl)nc1)c1ccc(/C=C/C(c2cc(Cl)c(F)c(Cl)c2)C(F)(F)F)cc1Br (stereo not drawn) [AC63]	A (50-100)
FC(F)(F)C(/C=C/c1ccc(-n2cncn2)cc1)c1ccccc1 (stereo not drawn) [DC3]	B (More than 0-Less than 50)
Cc1cc(/C=C/C(c2cc(Cl)cc(Cl)c2)C(F)(F)F)ccc1C(=O)NCc1ccc(Cl)nc1 (stereo not drawn) [AC7]	A (50-100)
COc1cc(/C=C/C(c2cc(Cl)c(F)c(Cl)c2)C(F)(F)F)ccc1C(=O)NC1CS(=O)(=O)C1 (stereo not drawn) [AC85]	A (50-100)
O=C(NC1CS(=O)(=O)C1)c1ccc(/C=C/C(c2cc(Cl)c(Cl)c(Cl)c2)C(F)(F)F)cc1Cl (stereo not drawn) [AC30]	A (50-100)
O=C(NCc1ccc(Cl)nc1)c1ccc(/C=C/C(c2cc(Cl)c(F)c(Cl)c2)C(F)(F)F)cc1F (stereo not drawn) [AC65]	A (50-100)
Fc1cc(F)cc(C(/C=C/c2ccc(-n3cncn3)cc2)C(F)(F)F)c1 (stereo not drawn) [DC8]	A (50-100)
C/C(=C\C(c1cc(Cl)cc(Cl)c1)C(F)(F)F)c1ccc(-n2cncn2)cc1 (stereo not drawn) [DC68, (E)-1-(4-(4-(3,5-Dichlorophenyl)-5,5,5-trifluoropent-2-en-2-yl)phenyl)-1H-1,2,4-triazole]	A (50-100)
O=C(CNC(=O)c1ccc(/C=C/C(c2cc(Cl)c(Cl)c(Cl)c2)C(F)(F)F)cc1Cl)NCC(F)(F)F (stereo not drawn) [AC64, (E)-2-Chloro-N-(2-oxo-2-((2,2,2-trifluoroethyl)amino)ethyl)-4-(4,4,4-trifluoro-3-(3,4,5-trichlorophenyl)but-1-en-1-yl)benzamide]	A (50-100)
O=C(NOc1ccc(/C=C/C(c2cc(Cl)c(Cl)c(Cl)c2)C(F)(F)F)cc1)C1CC1 (stereo not drawn) [CC52, (E)-N-(4-(4,4,4-Trifluoro-3-(3,4,5-trichlorophenyl)but-1-en-1-yl)phenoxy)cyclopropanecarboxamide]	A (50-100)
O=C(CNC(=O)c1ccc(/C=C/C(c2cc(Cl)c(Cl)c(Cl)c2)C(F)(F)F)cc1Br)NCC(F)(F)F (stereo not drawn) [AC66]	A (50-100)
O=C(Cc1ccc(Cl)nc1)NC1CCc2cc(/C=C/C(c3cc(Cl)c(F)c(Cl)c3)C(F)(F)F)ccc21 (stereo not drawn) [BC9]	A (50-100)
N#Cc1cc(/C=C\C(c2cc(Cl)c(F)c(Cl)c2)C(F)(F)F)ccc1-n1cncn1 (stereo not drawn) [DC46]	A (50-100)
